For test [1], the target named is Estrogen receptor beta (Homo sapiens) (UniProt Q92731). Briefly: Displacement of [3H]-estradiol from human recombinant ERbeta expressed in Sf21 cells at 10 uM after 2 hrs. On the technique in general: Loss of bound radioactivity is the signal in a displacement assay; it reports binding, not function.
The target of test [2] is T1, Estrogen receptor (Homo sapiens) (UniProt P03372).
T1 sequence (whole entry): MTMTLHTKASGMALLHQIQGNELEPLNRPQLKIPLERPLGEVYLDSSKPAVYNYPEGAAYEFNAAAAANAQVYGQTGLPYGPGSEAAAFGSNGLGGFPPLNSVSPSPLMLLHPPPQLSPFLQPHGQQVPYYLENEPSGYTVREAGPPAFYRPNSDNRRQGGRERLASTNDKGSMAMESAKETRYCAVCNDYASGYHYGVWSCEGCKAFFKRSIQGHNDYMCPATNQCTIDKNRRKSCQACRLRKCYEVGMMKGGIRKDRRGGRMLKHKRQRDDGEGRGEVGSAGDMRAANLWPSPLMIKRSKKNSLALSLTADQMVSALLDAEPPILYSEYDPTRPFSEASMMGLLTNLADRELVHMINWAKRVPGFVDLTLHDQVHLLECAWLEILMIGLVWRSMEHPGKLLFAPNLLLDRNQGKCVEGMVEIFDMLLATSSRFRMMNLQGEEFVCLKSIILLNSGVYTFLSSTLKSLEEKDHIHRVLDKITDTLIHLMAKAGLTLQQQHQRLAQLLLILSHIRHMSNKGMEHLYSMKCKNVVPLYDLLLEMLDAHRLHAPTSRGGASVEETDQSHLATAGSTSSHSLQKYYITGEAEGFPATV
In words: Displacement of [3H]-estradiol from human recombinant ERalpha expressed in Sf21 cells at 10 uM after 2 hrs.

In test [3] the target is T2, Prostaglandin G/H synthase 2 (Homo sapiens) (UniProt P35354).
T2 sequence (whole entry): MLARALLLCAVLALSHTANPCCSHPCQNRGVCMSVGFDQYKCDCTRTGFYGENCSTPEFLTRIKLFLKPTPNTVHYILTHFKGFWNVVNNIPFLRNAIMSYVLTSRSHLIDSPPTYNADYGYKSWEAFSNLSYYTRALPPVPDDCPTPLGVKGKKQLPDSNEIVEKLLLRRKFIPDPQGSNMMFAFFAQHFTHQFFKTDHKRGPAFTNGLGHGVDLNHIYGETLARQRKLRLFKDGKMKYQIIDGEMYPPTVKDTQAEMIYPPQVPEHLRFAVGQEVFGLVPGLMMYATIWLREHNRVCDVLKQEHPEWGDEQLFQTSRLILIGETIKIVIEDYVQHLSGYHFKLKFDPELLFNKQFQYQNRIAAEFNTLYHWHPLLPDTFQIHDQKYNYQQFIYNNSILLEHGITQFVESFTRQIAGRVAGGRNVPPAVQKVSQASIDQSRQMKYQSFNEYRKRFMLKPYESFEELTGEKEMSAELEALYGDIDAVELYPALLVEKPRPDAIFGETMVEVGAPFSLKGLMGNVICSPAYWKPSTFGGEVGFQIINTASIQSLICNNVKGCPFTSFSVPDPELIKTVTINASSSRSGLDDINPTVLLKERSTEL
Briefly: Inhibition of human recombinant COX2 expressed in Sf21 cells using arachidonic acid as substrate at 10 uM preincubated for 15 mins before arachidonic acid addition measured after 5 mins.

Test [4] deals with T3, Prostaglandin G/H synthase 1 (Homo sapiens, UniProt P23219). In words: Inhibition of human platelet COX1 using arachidonic acid as substrate at 10 uM preincubated for 15 mins before arachidonic acid addition measured after 15 mins.
For test [5], the target named is T4, Prostaglandin G/H synthase 2 (Homo sapiens, UniProt P35354).
T4 sequence (P35354 whole entry): T2 sequence (whole entry)
Briefly: Inhibition of COX2.

For test [6], the target named is T3, Prostaglandin G/H synthase 1. In words: Inhibition of COX1.

Estrogen receptor beta (Homo sapiens), sequence (Q92731 whole entry): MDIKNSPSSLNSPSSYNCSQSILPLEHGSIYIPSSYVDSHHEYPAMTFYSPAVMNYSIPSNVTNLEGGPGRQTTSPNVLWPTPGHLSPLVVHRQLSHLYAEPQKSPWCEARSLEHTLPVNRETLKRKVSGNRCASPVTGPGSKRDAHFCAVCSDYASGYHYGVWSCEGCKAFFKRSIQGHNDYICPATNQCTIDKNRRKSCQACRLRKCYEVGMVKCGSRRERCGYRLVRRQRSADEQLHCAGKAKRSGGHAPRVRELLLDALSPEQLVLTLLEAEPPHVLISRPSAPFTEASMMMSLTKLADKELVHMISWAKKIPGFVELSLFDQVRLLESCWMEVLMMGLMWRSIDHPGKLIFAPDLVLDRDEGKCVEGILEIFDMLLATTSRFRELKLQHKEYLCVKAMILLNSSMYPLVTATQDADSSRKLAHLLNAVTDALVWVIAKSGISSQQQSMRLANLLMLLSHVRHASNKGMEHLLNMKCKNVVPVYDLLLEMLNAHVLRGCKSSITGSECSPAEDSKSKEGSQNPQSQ
T3 sequence (P23219 whole entry): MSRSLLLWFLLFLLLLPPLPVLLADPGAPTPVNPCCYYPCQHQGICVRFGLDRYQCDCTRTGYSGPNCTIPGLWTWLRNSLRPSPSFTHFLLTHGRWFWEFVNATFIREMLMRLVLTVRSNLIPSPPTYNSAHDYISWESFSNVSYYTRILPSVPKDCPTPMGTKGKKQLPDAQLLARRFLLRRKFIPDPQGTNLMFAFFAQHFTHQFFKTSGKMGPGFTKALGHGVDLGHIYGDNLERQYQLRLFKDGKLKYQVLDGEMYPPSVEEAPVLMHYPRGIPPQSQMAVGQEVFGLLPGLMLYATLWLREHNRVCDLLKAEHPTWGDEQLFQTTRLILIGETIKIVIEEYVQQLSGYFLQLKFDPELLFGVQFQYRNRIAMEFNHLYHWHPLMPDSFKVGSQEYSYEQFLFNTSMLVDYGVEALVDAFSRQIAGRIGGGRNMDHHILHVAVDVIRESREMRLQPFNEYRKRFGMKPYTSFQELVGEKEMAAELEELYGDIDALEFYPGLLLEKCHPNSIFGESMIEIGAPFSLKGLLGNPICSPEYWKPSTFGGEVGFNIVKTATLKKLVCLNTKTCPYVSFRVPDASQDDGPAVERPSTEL

For the molecule `CCCCC(=C(c1ccccc1)c1ccccc1)c1ccc([S+](C)([O-])=NC#N)cc1` (stereo not given), the inhibition (as a rule, the change of the read-out against control, counted positive when it falls) in test [1] came to 60%; in test [2], 54%; in test [3], 10%; in test [4], 5%.

In the case of `CCCCC(=C(c1ccccc1)c1ccccc1)c1ccc(S(C)(=O)=O)cc1`, the inhibition was 77% in test [1] and -6% in test [2]. In addition, the IC50 – broadly, the midpoint of a concentration-inhibition curve – in test [5] was 0.014 µM; in test [6], > 100 µM.

Regarding `CC(=C(c1ccccc1)c1ccccc1)c1ccc([S+](C)(=N)[O-])cc1` (stereo not given), the values for the inhibition in test [1], in test [2] and in test [4] were 53%, 77% and 23%, respectively.

Take `CCCCC(=C(c1ccccc1)c1ccccc1)c1ccc([S+](C)(=N)[O-])cc1` (stereo not given): the inhibition in test [1] was found to be 80%; in test [2] it was 91%; in test [3] it was 17%; in test [4] it was 12%.

Values taken from ChEMBL document CHEMBL2169818, “Syntheses and biological activities of sulfoximine-based acyclic triaryl olefins” (Bioorg Med Chem Lett, 2012).
